According to the supplement of paper PMC10307832:

Legend:
Assay in all cases: relative viability (nuclei count vs DMSO), 5 days (fraction); higher = more cells survive
AZD5582 + Foretinib = compound: C[C@@H](C(=O)N[C@@H](C1CCCCC1)C(=O)N2CCC[C@H]2C(=O)N[C@@H]3[C@@H](CC4=CC=CC=C34)OCC#CC#CCO[C@@H]5CC6=CC=CC=C6[C@@H]5NC(=O)[C@@H]7CCCN7C(=O)[C@H](C8CCCCC8)NC(=O)[C@H](C)NC)NC [AZD5582] + COc1cc2c(Oc3ccc(NC(=O)C4(C(=O)Nc5ccc(F)cc5)CC4)cc3F)ccnc2cc1OCCCN1CCOCC1 [Foretinib] (partner 0.25 µM)
Method in brief: (§1)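 Lung cancer cell lines in 1536-well plates were dosed by pin tool the day after seeding, either with one drug alone or with a fixed anchor-drug dose plus five library-drug doses (not always all listed) in √10 steps. After 5 days, cells were fixed and their nuclei stained in one step (final 0.05% Triton X-100, 1% formaldehyde, 1 ug/ml Hoechst), then counted on 4× images. Relative viability is the nuclei count in treated wells divided by that in vehicle wells. Values are medians of duplicate plates.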

AZD5582 + Crizotinib = compound: C[C@@H](C(=O)N[C@@H](C1CCCCC1)C(=O)N2CCC[C@H]2C(=O)N[C@@H]3[C@@H](CC4=CC=CC=C34)OCC#CC#CCO[C@@H]5CC6=CC=CC=C6[C@@H]5NC(=O)[C@@H]7CCCN7C(=O)[C@H](C8CCCCC8)NC(=O)[C@H](C)NC)NC [AZD5582] + C[C@@H](Oc1cc(-c2cnn(C3CCNCC3)c2)cnc1N)c1c(Cl)ccc(F)c1Cl [Crizotinib] (partner 1 µM)
Method in brief: as §1

[1] = compound: Cn1nnc2c(C(N)=O)ncn2c1=O [Temozolomide] + CC(=O)Nc1cccc(-n2c(=O)n(C3CC3)c(=O)c3c(Nc4ccc(I)cc4F)n(C)c(=O)c(C)c32)c1 [Trametinib] (partner 0.02 µM)
Method in brief: as §1

[2] = compound: Cn1nnc2c(C(N)=O)ncn2c1=O [Temozolomide] + CS(=O)(=O)N1CCN(Cc2cc3nc(-c4cccc5[nH]ncc45)nc(N4CCOCC4)c3s2)CC1 [Pictilisib] (partner 1 µM)
Method in brief: as §1

## SK-MES-1
AZD5582 + Foretinib; first compound 0.001581 µM
  relative viability: 0.878
AZD5582 + Foretinib; first compound 0.005 µM
  relative viability: 1.29
AZD5582 + Foretinib; first compound 0.01581 µM
  relative viability: 0.967
AZD5582 + Foretinib; first compound 0.05 µM
  relative viability: 1.24
AZD5582 + Crizotinib; first compound 0.001581 µM
  relative viability: 0.992
AZD5582 + Crizotinib; first compound 0.005 µM
  relative viability: 1.02
AZD5582 + Crizotinib; first compound 0.01581 µM
  relative viability: 0.941
AZD5582 + Crizotinib; first compound 0.05 µM
  relative viability: 1.04
[1]; first compound 0.2 µM
  relative viability: 0.656
[1]; first compound 0.6325 µM
  relative viability: 0.578
[1]; first compound 2 µM
  relative viability: 0.663
[1]; first compound 6.325 µM
  relative viability: 0.539
[1]; first compound 20 µM
  relative viability: 0.58
[2]; first compound 0.2 µM
  relative viability: 0.279
[2]; first compound 0.6325 µM
  relative viability: 0.362
[2]; first compound 2 µM
  relative viability: 0.424
[2]; first compound 6.325 µM
  relative viability: 0.331
[2]; first compound 20 µM
  relative viability: 0.282

## NCI-H838
AZD5582 + Foretinib; first compound 0.001581 µM
  relative viability: 0.985
AZD5582 + Foretinib; first compound 0.005 µM
  relative viability: 1.19
AZD5582 + Foretinib; first compound 0.05 µM
  relative viability: 1.06
AZD5582 + Crizotinib; first compound 0.001581 µM
  relative viability: 0.823
AZD5582 + Crizotinib; first compound 0.005 µM
  relative viability: 0.914
AZD5582 + Crizotinib; first compound 0.01581 µM
  relative viability: 0.746
AZD5582 + Crizotinib; first compound 0.05 µM
  relative viability: 1.04
[1]; first compound 0.2 µM
  relative viability: 0.498
[1]; first compound 0.6325 µM
  relative viability: 0.559
[1]; first compound 2 µM
  relative viability: 0.586
[1]; first compound 6.325 µM
  relative viability: 0.482
[1]; first compound 20 µM
  relative viability: 0.585
[2]; first compound 0.2 µM
  relative viability: 0.45
[2]; first compound 0.6325 µM
  relative viability: 0.48
[2]; first compound 2 µM
  relative viability: 0.577
[2]; first compound 6.325 µM
  relative viability: 0.446
[2]; first compound 20 µM
  relative viability: 0.584

## HCC-15
AZD5582 + Foretinib; first compound 0.001581 µM
  relative viability: 0.74
AZD5582 + Foretinib; first compound 0.005 µM
  relative viability: 0.805
AZD5582 + Foretinib; first compound 0.01581 µM
  relative viability: 0.959
AZD5582 + Foretinib; first compound 0.05 µM
  relative viability: 0.75
AZD5582 + Crizotinib; first compound 0.001581 µM
  relative viability: 0.646
AZD5582 + Crizotinib; first compound 0.005 µM
  relative viability: 0.536
AZD5582 + Crizotinib; first compound 0.01581 µM
  relative viability: 0.754
AZD5582 + Crizotinib; first compound 0.05 µM
  relative viability: 0.455
[1]; first compound 0.2 µM
  relative viability: 0.38
[1]; first compound 0.6325 µM
  relative viability: 0.392
[1]; first compound 2 µM
  relative viability: 0.417
[1]; first compound 6.325 µM
  relative viability: 0.318
[1]; first compound 20 µM
  relative viability: 0.385
[2]; first compound 0.2 µM
  relative viability: 0.818
[2]; first compound 0.6325 µM
  relative viability: 0.82
[2]; first compound 2 µM
  relative viability: 0.737
[2]; first compound 6.325 µM
  relative viability: 0.693
[2]; first compound 20 µM
  relative viability: 0.786

## EPLC-272H
AZD5582 + Foretinib; first compound 0.001581 µM
  relative viability: 0.0672
AZD5582 + Foretinib; first compound 0.01581 µM
  relative viability: 0.546
AZD5582 + Foretinib; first compound 0.05 µM
  relative viability: 0.0632
AZD5582 + Crizotinib; first compound 0.001581 µM
  relative viability: 0.187
AZD5582 + Crizotinib; first compound 0.005 µM
  relative viability: 0.131
AZD5582 + Crizotinib; first compound 0.01581 µM
  relative viability: 0.746
AZD5582 + Crizotinib; first compound 0.05 µM
  relative viability: 0.0674
[1]; first compound 0.2 µM
  relative viability: 0.241
[1]; first compound 0.6325 µM
  relative viability: 0.279
[1]; first compound 2 µM
  relative viability: 0.338
[1]; first compound 6.325 µM
  relative viability: 0.324
[1]; first compound 20 µM
  relative viability: 0.277
[2]; first compound 0.2 µM
  relative viability: 0.356
[2]; first compound 0.6325 µM
  relative viability: 0.35
[2]; first compound 2 µM
  relative viability: 0.334
[2]; first compound 6.325 µM
  relative viability: 0.298
[2]; first compound 20 µM
  relative viability: 0.326

## UMC-11
AZD5582 + Foretinib; first compound 0.001581 µM
  relative viability: 0.995
AZD5582 + Foretinib; first compound 0.005 µM
  relative viability: 1.12
AZD5582 + Foretinib; first compound 0.01581 µM
  relative viability: 1.03
AZD5582 + Foretinib; first compound 0.05 µM
  relative viability: 1.05
AZD5582 + Crizotinib; first compound 0.001581 µM
  relative viability: 0.534
AZD5582 + Crizotinib; first compound 0.005 µM
  relative viability: 0.671
AZD5582 + Crizotinib; first compound 0.01581 µM
  relative viability: 0.578
AZD5582 + Crizotinib; first compound 0.05 µM
  relative viability: 0.493
[1]; first compound 0.2 µM
  relative viability: 0.728
[1]; first compound 0.6325 µM
  relative viability: 0.749
[1]; first compound 2 µM
  relative viability: 0.786
[1]; first compound 6.325 µM
  relative viability: 0.643
[1]; first compound 20 µM
  relative viability: 0.519
[2]; first compound 0.2 µM
  relative viability: 1.08
[2]; first compound 0.6325 µM
  relative viability: 0.917
[2]; first compound 2 µM
  relative viability: 0.893
[2]; first compound 6.325 µM
  relative viability: 0.729
[2]; first compound 20 µM
  relative viability: 0.442

## HARA
AZD5582 + Foretinib; first compound 0.001581 µM
  relative viability: 0.858
AZD5582 + Foretinib; first compound 0.005 µM
  relative viability: 0.918
AZD5582 + Foretinib; first compound 0.01581 µM
  relative viability: 0.904
AZD5582 + Foretinib; first compound 0.05 µM
  relative viability: 0.639
AZD5582 + Crizotinib; first compound 0.001581 µM
  relative viability: 1.01
AZD5582 + Crizotinib; first compound 0.005 µM
  relative viability: 0.894
AZD5582 + Crizotinib; first compound 0.01581 µM
  relative viability: 1.04
AZD5582 + Crizotinib; first compound 0.05 µM
  relative viability: 1
[1]; first compound 0.2 µM
  relative viability: 0.717
[1]; first compound 0.6325 µM
  relative viability: 0.601
[1]; first compound 2 µM
  relative viability: 0.886
[1]; first compound 6.325 µM
  relative viability: 0.89
[1]; first compound 20 µM
  relative viability: 0.441
[2]; first compound 0.2 µM
  relative viability: 0.376
[2]; first compound 0.6325 µM
  relative viability: 0.484
[2]; first compound 2 µM
  relative viability: 0.603
[2]; first compound 6.325 µM
  relative viability: 0.438
[2]; first compound 20 µM
  relative viability: 0.256

## NCI-H2170
AZD5582 + Foretinib; first compound 0.001581 µM
  relative viability: 1.04
AZD5582 + Foretinib; first compound 0.005 µM
  relative viability: 1.01
AZD5582 + Foretinib; first compound 0.01581 µM
  relative viability: 1
AZD5582 + Foretinib; first compound 0.05 µM
  relative viability: 1.09
AZD5582 + Crizotinib; first compound 0.001581 µM
  relative viability: 1.1
AZD5582 + Crizotinib; first compound 0.005 µM
  relative viability: 1.25
AZD5582 + Crizotinib; first compound 0.01581 µM
  relative viability: 1.18
AZD5582 + Crizotinib; first compound 0.05 µM
  relative viability: 1.47
[1]; first compound 0.6325 µM
  relative viability: 0.984
[1]; first compound 2 µM
  relative viability: 0.902
[1]; first compound 6.325 µM
  relative viability: 0.876
[1]; first compound 20 µM
  relative viability: 0.348
[2]; first compound 0.6325 µM
  relative viability: 0.38
[2]; first compound 2 µM
  relative viability: 0.361
[2]; first compound 6.325 µM
  relative viability: 0.289
[2]; first compound 20 µM
  relative viability: 0.23

## 201T
AZD5582 + Foretinib; first compound 0.001581 µM
  relative viability: 1.09
AZD5582 + Foretinib; first compound 0.005 µM
  relative viability: 1.43
AZD5582 + Foretinib; first compound 0.01581 µM
  relative viability: 1.12
AZD5582 + Foretinib; first compound 0.05 µM
  relative viability: 1.45
AZD5582 + Crizotinib; first compound 0.001581 µM
  relative viability: 1.09
AZD5582 + Crizotinib; first compound 0.005 µM
  relative viability: 1.12
AZD5582 + Crizotinib; first compound 0.01581 µM
  relative viability: 1.04
AZD5582 + Crizotinib; first compound 0.05 µM
  relative viability: 1.25
[1]; first compound 0.2 µM
  relative viability: 0.707
[1]; first compound 0.6325 µM
  relative viability: 0.72
[1]; first compound 2 µM
  relative viability: 0.725
[1]; first compound 6.325 µM
  relative viability: 0.681
[1]; first compound 20 µM
  relative viability: 0.714
[2]; first compound 0.2 µM
  relative viability: 0.683
[2]; first compound 0.6325 µM
  relative viability: 0.731
[2]; first compound 2 µM
  relative viability: 0.735
[2]; first compound 6.325 µM
  relative viability: 0.69
[2]; first compound 20 µM
  relative viability: 0.641

## NCI-H1944
AZD5582 + Foretinib; first compound 0.001581 µM
  relative viability: 0.8
AZD5582 + Foretinib; first compound 0.005 µM
  relative viability: 0.976
AZD5582 + Foretinib; first compound 0.01581 µM
  relative viability: 0.93
AZD5582 + Foretinib; first compound 0.05 µM
  relative viability: 1.05
AZD5582 + Crizotinib; first compound 0.001581 µM
  relative viability: 0.914
AZD5582 + Crizotinib; first compound 0.005 µM
  relative viability: 1.07
AZD5582 + Crizotinib; first compound 0.01581 µM
  relative viability: 1.09
AZD5582 + Crizotinib; first compound 0.05 µM
  relative viability: 1.07
[1]; first compound 0.2 µM
  relative viability: 0.367
[1]; first compound 0.6325 µM
  relative viability: 0.402
[1]; first compound 2 µM
  relative viability: 0.435
[1]; first compound 6.325 µM
  relative viability: 0.426
[1]; first compound 20 µM
  relative viability: 0.362
[2]; first compound 0.2 µM
  relative viability: 0.366
[2]; first compound 0.6325 µM
  relative viability: 0.352
[2]; first compound 2 µM
  relative viability: 0.363
[2]; first compound 6.325 µM
  relative viability: 0.346
[2]; first compound 20 µM
  relative viability: 0.342
